# Experimental data from PMC8647499, “Preclinical evaluation of strasseriolides A–D, potent antiplasmodial macrolides isolated from Strasseria geniculata CF-247,251” (Malaria Journal, 2021).
# Values joined by “and” are separate entries in the source; they are usually repeats but may differ in a detail not shown here. Equal values may be shown once. Read-outs that look alike come from different tables or passages of the source.
# How the values were obtained:
# [1] = test system: transgenic P. berghei line 676m1cl1 (PbGFP-Luccon), ANKA strain; assay: In vivo efficacy in P. berghei infected mice (luciferase activity); design: species or system Plasmodium berghei in Swiss Webster female mice; details: chloroquine 20 mg/kg; for Parasitaemia (Luminescence arbitrary units), Average ± SD: 4 days from 48 h post-infection
# Experimental: In vivo efficacy experiments were performed at the Anti-infectives Screening Core Services facility of the New York University School of Medicine. The transgenic P. berghei line 676m1cl1 parasite (PbGFP-Luccon) expressing the fusion GFP (mutant 3) and firefly luciferase (LucIAV) proteins generated in the reference clone of ANKA strain cl15cy1 was used. Swiss Webster female mice were infected with transgenic P. berghei line 676m1cl1 (PbGFP-Luccon) ANKA-infected 10³ red blood cells. Treatment was then started 48 h post-parasite infection by i.p. dosage of 22 mg/kg of strasseriolide D and 50 mg/kg of strasseriolide C. Vehicle only (PBS 2% methylcellulose, 0.5% Tween 80) and 20 mg/kg chloroquine were used as negative and positive controls. The infected mice were treated for four days, after which luciferase activity of the parasites was quantified 5 to 10 min after i.p. injection of 150 mg/kg D-Luciferin Potassium-salt (Goldbio) dissolved in PBS using an IVIS® Lumina II imager on the fifth day.
# The Genedata Screener online application (Genedata AG, Basel, Switzerland) was used to compute IC50 values. The Smart Fit strategy with Hill model was selected as the choice for curve fitting. Where applicable, data are presented as mean ± standard deviation (SD). In Fig. 3, the significant differences between the vehicle controls and test compounds were calculated by the Student’s t test.
# [2] = Metabolic stability assay in human liver microsomes; format: in vitro ADME; details: for half-life: pH 7.4, 1 mg/mL protein; for Clearance Category: ranked by CLint
# Experimental: Pretreatment of the 96-well ABgen-0765 reaction plates was the same as previously described above. Two microlitres (2 µL) of compounds (previously dissolved in DMSO) were pre-incubated with 98 µL of cofactor/buffer solution (0.1 M phosphate buffer of pH 7.4, 100 mM K3PO4, 3.3 mM MgCl2, 3.3 mM G6P, 1.3 mM NADPH, and 0.4 u/mL G6PDH) at 37 °C for 10 min. The reactions were then initiated by the addition of 100 µL of HLM solution (at final protein concentration of 1 mg/mL), after which they were stopped at pre-determined incubation times of 0, 10, 15, 30, 45 and 60 min by adding 90 µL acetonitrile containing internal LC–MS–MS standards and shaking at 180 Hz. The samples were centrifuged to sediment the protein precipitates and the supernatants were analysed by LC–MS–MS as previously described above. The integration of each analyte (the […]) and internal standard peak area was performed by the Analyst® software version 1.5.2 and used to calculate the percentage of remaining compound at each incubation time. The natural logarithm of the percentage of the remaining parent compound was plotted against the incubation time and used to calculate the half-life by the following equation:
# Half-life (T ½ min) = 0.693/k, where k is the slope of a plot of the natural log of the percentage parent compound remaining vs. time.
# The intrinsic clearance (CLint) was determined by the equation: CLint
# =Ln2/t1/2min∗volumeincubationmL/microsomalproteinmg∗45MPPGL1500ghumanliver/70kghumanbodyweightj
# Units for CLint were expressed as mL/min/mg microsomal protein and MPPGL = mg microsomal protein per gram liver.
# [3] = Quantification of compounds in mice plasma by LC-MS-MS and PK parameters after i.v. injection; format: in vivo; details: for Plasma Conc. @Tinitial: mice, Tinitial 0.5 h (A, C), 0.13 h (B), 1.5 h (D)
# Experimental: (§1) Three Balb/C mice (6–8 weeks old) were intravenously injected with 25 mg/kg of strasseriolide D dissolved in 200 µL of vehicle (0.5%HPMC, 0.5% Tween 80 and 0.5% Benzyl alcohol in water). Blood samples were collected by pricking the […] on the leg of each mouse at time points 1.5 (T 1.5 h), 5 (T 5 h) and 24 h (T 24 h). From the harvested blood, 50 µL plasma were prepared for all the samples and stored at -80 °C until needed. A previously developed LC–MS–MS method (see supporting information) was used to determine the plasma concentration of strasseriolide D as described below.
# Ten millimolar (10 mM) DMSO stocks of strasseriolide D (the test compound) and strasseriolide A (used as internal standard,) were prepared. From the strasseriolide D stock, a 59.7 µM (27,000 ppb) working concentration was made in DMSO and an aliquot of this was serially diluted (½) in reconstitution solution (1:1 of acetonitrile: H2O with 0.1% formic acid) to create a six-point calibration curve in triplicate. Three different quality control (QC) concentrations of strasseriolide D at 59.7, 0.74, and 0.25 µM (i.e. 27,000 ppb, 333 ppb and 111 ppb) were also prepared in duplicate. From the strasseriolide A (internal standard) stock, a 6.2 µM (2700 ppb) working concentration was prepared in DMSO.
# Blank mouse plasma (prepared from non-injected mouse) was retrieved from the freezer (− 80 °C) and kept on ice to thaw. The sample was vortexed adequately and 15 µL aliquots transferred into 0.7 mL Eppendorf tubes after which 35 µL of Milli-Q water were added and vortexed. Triplicate sets of the diluted plasma were then respectively spiked with 2 uL of each concentration of the calibration curves of strasseriolide D. Another triplicate set of the diluted plasma was spiked with 2 µL of each concentration of the standard QC solutions. All the above samples were also spiked with 2 µL of strasseriolide A (the internal standard)). To serve as blank samples, a fresh triplicate set of diluted plasma were spiked with 4 µL of DMSO. Non-matrix samples were also prepared by spiking 100 µL aliquots of reconstitution solution with 2 µL of the standard QC solutions and 2 µL of internal standard.
# Fifteen microlitres (15 µL) plasma from the various time points of the strasseriolide D-injected mice, were respectively transferred into 0.7 mL Eppendorf tubes. To each sample, 37 µL of Milli-Q water were added, vortexed and spiked with 2 µL of strasseriolide A (internal standard). Two hundred microlitres (200 µL) of ice-cold acetonitrile were added to all of the matrix (plasma-containing) samples and centrifuged at 13,300 rpm for 15 min at 4 °C. Subsequently, 180 µL aliquots were carefully transferred (without disturbing the protein precipitate) from each tube into clean HPLC vials and evaporated to dryness in an EZ2 Genevac at room temperature. The dried samples were then reconstituted in 40 µL of reconstitution solution by vortexing. The samples were placed in an auto-sampler drawer for LC–MS–MS analysis and quantification of strasseriolide D (the test compound) in mice plasma.
# (§2) Similar sample preparation and LC–MS–MS analysis were respectively performed for mice intravenously injected with strasseriolides A and C as test compounds and mice blood samples collected at 30 min (T 30 M), 2 h (T 2 h), 6 h (T 6 h) and 24 h (T 24 h). […] For strasseriolides A, B and C as test compounds; strasseriolides C, D and B were respectively used as internal standards. After LC–MS–MS analysis, the plasma concentration of compound vs. time data was determined for each strasseriolide.
# 116 Table S2. QC table used to calculate the precision and accuracy of the method.
# Compound Expected No. Experimental STD % %
# conc. in values mean conc. deviation CV Accuracy
# 118 (5) The mean recovery rate for the test compound (strasseriolide B) – this was calculated
# 119 to be 29 % by comparing the plasma QC peak area ratios at the established retention time […]
# mice = assay: In vivo toxicity in mice after i.v. injection
# Experimental: as §1, §2
# Animals were observed individually at 15, 30 and 60 min after dosing and periodically during the first 24 h for any clinical signs of toxicity or mortality. The toxicity evaluation was carried out by observing behaviour parameters, including the Grimace scale parameters. The mice were sacrificed, and the main organs were examined by visual inspection during autopsy.
# [4] = test system: Plasmodium falciparum strain 3D7 whole parasites; design: method as in PMID 32808790; details: in vitro, read-out: IC50 against Plasmodium falciparum strain 3D7; cited from earlier work
# HepG2 liver cells = test system: HepG2 liver cells; design: method as in PMID 32808790; details: cited from earlier work
# [5] = Balb/C, mouse, in vivo, iv, 25 mg/kg
# [6] = Balb/C, mouse, in vivo, iv, 25 mg/kg, 24 h
# [7] = Balb/C, mouse, in vivo, iv, 25 mg/kg, Ave. Conc. in plasma
smiles,measurement,setting,value
"CCN(CC)CCCC(C)Nc1ccnc2cc(Cl)ccc12 (stereo not drawn) [Chloroquine, chloroquine, reference compound]","Parasitaemia (Luminescence arbitrary units), Average ± SD","[1]; Table S7/Fig. 3A experiment: strasseriolide C 50 mg/kg i.p., read day 5, four replicates",0.00 Luminescence arbitrary units
same,"Parasitaemia (Luminescence arbitrary units), single replicates","[1]; Table S7 experiment: strasseriolide C 50 mg/kg i.p., individual mice",0.00 Luminescence arbitrary units
same,"Parasitaemia (Luminescence arbitrary units), Average ± SD","[1]; Table S8/Fig. 3B experiment: strasseriolide D 22 mg/kg i.p., read day 5, five replicates",3 × 10^3 Luminescence arbitrary units
"C/C1=C\[C@H](C)CCC(=O)/C(C)=C/[C@H](C)C[C@@H](C)CC[C@@H]([C@@H](C)C(=O)O)OC(=O)[C@@H](C)C1 [Strasseriolide A, strasseriolide A]",half-life,[2],6.47 ± 1.05 min
same,Clearance Category,[2],High
same,AUC 0-t/0-inf_obs,[3]; [5],0.9738
same,AUC(0-inf),[3]; [5],510 ng·h/mL and 1.17 µM·h
same,C0,[3]; [5],378 ng/mL and 870 nM
same,Clast_obs/Cmax,[3]; [5],0.009713
same,Cmax,[3]; [5],216 ng/mL and 498 nM
same,MRT,[3]; [5],2.98 h
same,MRT inf,[3]; [5],2.99 h
same,Tmax,[3]; [5],0.5 h
same,Vss_obs,[3]; [5],0.1465 (mg/kg)/(ng/ml)
same,Vz_obs (plasma distribution volume),[3]; [5],312.4 L/kg
same,k el,[3]; [5],4.36e-05 s⁻¹
same,"Calc. Conc. in plasma, individual mice",[3]; [6],< 2.1 ng/mL
same,Plasma Conc. @T24 h,[3]; [6],<4.8 nM
same,concentration at 8 min,"[3]; Balb/C, mouse, in vivo, iv, 25 mg/kg, 24 h, read-out: Calc. Conc. in plasma, individual mice",< 0.00484 µM
same,AUC(0-t),"[3]; Balb/C, mouse, in vivo, iv, 25 mg/kg, AUC 0-t",1.14 µM·h and 496 ng·h/mL
same,AUC(0-t),"[3]; Balb/C, mouse, in vivo, iv, 25 mg/kg, AUC0−t",1.14 µM·h
same,concentration at 0.5 h,[3]; [7],498 nM
same,concentration at 2 h,[3]; [7],93.5 nM
same,concentration at 6 h,[3]; [7],11.6 nM
same,concentration at 24 h,[3]; [7],< 4.84 nM
same,concentration at 24 h,"[3]; Balb/C, mouse, in vivo, iv, 25 mg/kg, Calc. Conc. in plasma, individual mice",< 2.1 ng/mL and < 4.84 nM
same,concentration at 24 h,"[3]; Balb/C, mouse, in vivo, iv, 25 mg/kg, Plasma Conc. @T24 h",< 4.8 nM
same,half-life,"[3]; Balb/C, mouse, in vivo, iv, 25 mg/kg, T1/2 (apparent terminal elimination half-life)",4.4 h
same,half-life,"[3]; Balb/C, mouse, in vivo, iv, 25 mg/kg, t1/2",4.41 h
same,Cl_obs,"[3]; mouse, in vivo, iv, 25 mg/kg",0.04907 (mg/kg)/(ng/ml)/h
same,in vivo toxicity / mortality in mice,mice; [6],survived until 24 h post-i.v. injection
same,in vivo toxicity / mortality in mice,"mice; mouse, in vivo, iv, 25 mg/kg",non-toxic
same,IC50,[4],9.81 µM
"C/C1=C\[C@H](C)CC[C@@H](O)/C(C)=C/[C@H](C)C[C@@H](C)CC[C@@H]([C@@H](C)C(=O)O)OC(=O)[C@@H](C)C1 [Strasseriolide B, strasseriolide B]",half-life,[2],8.7 ± 2.4 min
same,Clearance Category,[2],High
same,concentration at 8 min,"[3]; Balb/C, mouse, in vivo, iv, 25 mg/kg, i.v. 25 mg/kg, T 8 minutes, read-out: Ave. Conc. in plasma",19.6 µM
same,concentration at 8 min,"[3]; Balb/C, mouse, in vivo, iv, 25 mg/kg, i.v. 25 mg/kg, T 8 minutes, read-out: Calc. Conc. in plasma, individual mice",8110 ng/mL and 18.6 µM
same,"Calc. Conc. in plasma, individual mice","[3]; i.v. 25 mg/kg, T 8 minutes",9098.0 ng/mL
same,"Calc. Conc. in plasma, individual mice","[3]; i.v. 25 mg/kg, T 8 minutes, listed as strasseriolide B",8419.0 ng/mL
same,concentration at 8 min,"[3]; i.v. 25 mg/kg, T 8 minutes, listed as strasseriolide B, read-out: Calc. Conc. in plasma, individual mice",19.3 µM
same,concentration at 8 min,"[3]; i.v. 25 mg/kg, T 8 minutes, read-out: Calc. Conc. in plasma, individual mice",20.9 µM
same,Plasma Conc. @Tinitial,[3]; i.v. 25 mg/kg,19600 nM
same,Plasma Conc. @Tinitial,"[3]; i.v. 25 mg/kg, listed as B*",19600 ± 1200 nM
same,time to death of all injected mice,mice; i.v. 25 mg/kg,*Only Tinitial and the Plasma Conc @ Tinitial were recorded as all the mice injected with this compound died under 8 min
same,in vivo toxicity / mortality in mice,"mice; i.v. 25 mg/kg, three mice, observed 24 h",all died just under eight minutes post-i.v. injection
same,in vivo toxicity / mortality in mice at lower dosages,"mice; i.v. 10, 5 and 1 mg/Kg",all resulted in death of the mice injected
same,IC50,[4],0.013 µM
same,in vitro toxicity against HepG2 liver cells,HepG2 liver cells,no in vitro toxicity
